For ten compounds, EC50 and IC50 results are on record in patent US20240228476A1, “INHIBITORS OF PROTEIN TYROSINE PHOSPHATASE, COMPOSITIONS, AND METHODS OF USE” (BRISTOL-MYERS SQUIBB COMPANY, priority 2022, published 2024).

The subject of assay [1] is phospho-STAT1 (Tyr701). The experiment in a line: Phospho-STAT1 (Tyr701) HTRF assay in B16-F10 cells. It is filed as cell-based. The following applies: mouse IFN-gamma 100 ng/ml, 1 hour, read-out: pSTAT1 HTRF B16 EC50. The procedure:
B16-F10 cells (ATCC, Manassas, VA, #CRL-6475) were cultured in DMEM growth medium (ThermoFisher Scientific, Waltham, MA, #11995-040) supplemented with 10% heat inactivated FBS (ThermoFisher Scientific, #16140-071) and 1% pen/strep (ThermoFisher Scientific, #15140-122). The cells were seeded into a white opaque 384-well tissue culture treated microplate (PerkinElmer, Waltham, MA, #6007688) at a density of 10,000 cells/well in 20 uL total volume and incubated overnight at 37 C and 5% CO2. 30 nL of compounds dissolved in DMSO were then transferred from a source plate into target wells with the Echo650 acoustic liquid handler (Beckman Coulter, Indianapolis, IN). Negative control wells received 30 nL of DMSO only (0.15% final concentration). Plates were returned to the incubator for 1 hour and then cells treated with either 5 uL of growth medium or 5 uL of growth medium containing 500 ng/ml of recombinant mouse IFN-gamma protein (R&D Systems, Minneapolis, MN, #485-MI/CF, 100 ng/ml final concentration) using the Assist automated pipetting platform (INTEGRA Biosciences, Hudson, NH). Plates were incubated at 37 C for 1 hour and assayed for phosphorylated STAT1 protein levels with the phospho-STAT1 (Tyr701) HTRF kit (Cisbio, Bedford, MA, #63ADK026PEH) according to manufacturer's instructions. HTRF signal intensity was collected with the En Vision 2105 plate reader (PerkinElmer) 24 hours later and analyzed with the Dotmatics software platform to calculate compound IC50 values.

The target of assay [2] is T1, PTPN2 (Homo sapiens, UniProt P17706).
T1 sequence (P17706 1-415): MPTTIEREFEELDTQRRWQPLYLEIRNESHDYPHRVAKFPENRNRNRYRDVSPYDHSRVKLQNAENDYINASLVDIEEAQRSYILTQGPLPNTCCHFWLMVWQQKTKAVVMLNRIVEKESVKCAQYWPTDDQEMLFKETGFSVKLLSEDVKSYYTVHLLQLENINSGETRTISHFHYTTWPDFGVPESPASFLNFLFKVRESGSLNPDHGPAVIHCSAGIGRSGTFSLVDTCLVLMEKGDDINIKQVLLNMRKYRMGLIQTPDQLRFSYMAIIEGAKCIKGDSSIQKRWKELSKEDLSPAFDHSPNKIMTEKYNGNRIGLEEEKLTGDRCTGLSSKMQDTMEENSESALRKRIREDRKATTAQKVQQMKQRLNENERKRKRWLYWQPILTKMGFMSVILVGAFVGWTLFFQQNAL
Description: Phosphatase activity assay using DiFMUP as substrate. It is filed as biochemical. Also on record: purchased MilliporeSigma SRP5075. The conditions noted are these: 10 mM DTT, PTPN2 0.15 nM, room temperature, read-out: PTPN2 BCHEM DIFMUP IC50. The procedure:
The PTPN2 biochemical assay was performed as follows, a 5× stock solution of human PTPN2 (SRP5075, MilliporeSigma, Burlington, MA) and a 1.25× stock solution of DiFMUP (D6567, ThermoFisher Scientific, Waltham, MA), were prepared in 1× reaction buffer consisting of 50 mM HEPES, pH 7.4, 1 mM EDTA, 150 mM NaCl, 0.2 mg/mL BSA, 100 U/mL catalase and 10 mM DTT. […] of the DiFMUP substrate solution, for a final concentration of […] DiFMUP substrate, was added to a Corning 3574 384-well, white, non-binding surface microtiter plate containing […] of serially diluted test compounds prepared in DMSO. The reactions were started with the addition of […] of the enzyme solution, for a final PTPN2 concentration of 0.15 nM, and monitored every 105 seconds for 60 minutes at λEX 360/λEM 460 in a BioTek Synergy HTX plate reader (Agilent Technologies, Santa Clara, CA) at room temperature. The initial linear portions of the progress curves were fit according to a linear equation to yield the slopes and converted to % inhibition based on a value of 100% activity for the no inhibitor treated control. IC50 values of each compound were obtained by fitting the % inhibition-compound concentration curves using Dotmatics software (Dotmatics, Bishops Stortford, Hertfordshire, England)
(§1) For IC50 data, High DDT concentration and/or DiFMUP substrate assays were used; a skilled artisan may use either assay.

Assay [3] deals with B16-F10 cells. Description: Cell proliferation assay (CellTiter-Glo) in B16-F10 cells with IFN-gamma. It is filed as cell-based. The following applies: mouse IFN-gamma 10 ng/mL, read-out: PTPN2 Prolif 5d B16F10 EC50. On the procedure: B16-F10 cells (ATCC, Manassas, VA, #CRL-6475) were cultured in DMEM growth medium (ThermoFisher Scientific, Waltham, MA, #11995-040) supplemented with 10% heat inactivated FBS (ThermoFisher Scientific, #16140-071) and 1% pen/strep (ThermoFisher Scientific, #15140-122). The cells were seeded into two white opaque 384-well tissue culture treated microplates (PerkinElmer, Waltham, MA, #6007688) at a density of 100 cells/well in 20 uL total volume and incubated overnight at 37 C and 5% CO2. 30 nL of compounds dissolved in DMSO were then transferred from a source plate into target wells with the Echo650 acoustic liquid handler (Beckman Coulter, Indianapolis, IN). Negative control wells received 30 nL of DMSO only (0.15% final concentration). Plates were returned to the incubator for 1 hour and then cells treated with either 5 uL of growth medium or 5 uL of growth medium containing 50 ng/ml of recombinant mouse IFN-gamma protein (R&D Systems, Minneapolis, MN, #485-MI/CF, 10 ng/mL final concentration) using the Assist automated pipetting platform (INTEGRA Biosciences, Hudson, NH). Plates were incubated at 37 C for 4 days and cell proliferation assayed with the CellTiter-Glo reagent (Promega, Madison, WI, #G7573, 25 uL per well). […] Off-target compound mediated cytotoxicity was identified by checking for growth inhibition in the absence of IFNg.
For orientation: In ATP-based viability assays light output follows the ATP content of the culture.

Assay [4] concerns the target T1, PTPN2. The experiment in a line: PTPN2 biochemical assay (PhosphoSens, substrate AQT0264). The following applies: PhosphoSens substrate AQT0264 20 μM, room temperature; read-out: PTPN2 BCHEM IC50. On the procedure:
A PhosphoSens® kinase assay was performed as described by the vendor (AssayQuant Technologies, Marlborough, MA). Briefly, 1000× solutions of compounds were prepared in DMSO via serial dilution of the 10 mM DMSO stocks using 3-fold intervals in a 384-well reagent plate. 50 nL of the compound dilution series was then added to the corresponding wells of a 384-well assay plate. 40 mL of 1.25× substrate (AQT0264) in 1× assay buffer (50 mM HEPES pH 7.5, 500 μM EGTA, […] MgCl2, 0.01% Brij-35, 1% Glycerol, 1 mM DTT, and 0.2 mg/mL BSA) was transferred to each well of the assay plate to achieve a final substrate concentration of 20 μM. Finally, […] of 5×PTPN2 enzyme stock was added to each well of the assay plate for a final enzyme concentration of […]. Reaction progress curves were collected by sampling fluorescence intensity at the excitation wavelength 360 nm (λex360) and emission wavelength 480 nm (λem480) every 71 seconds for one hour using a Synergy H4 plate reader (BioTek Instruments/Agilent Technologies, Winooski, VT) at room temperature.
as §1

Like-named read-outs stand apart in the source and are kept apart here.

Regarding `CC(C)c1cncc(NCc2cc(O)c(N3CC(=O)NS3(=O)=O)c(F)c2)c1` [EXAMPLE 13, 5-[2-fluoro-6-hydroxy-4-[[(5-isopropyl-3-pyridyl)amino]methyl]phenyl]-1,1-dioxo-1,2,5-thiadiazolidin-3-one], the values for the EC50 in assay [1] and in assay [3] (120 h) were 930 nM and 1370 nM, respectively. The IC50 – broadly, the concentration at which inhibition is half-maximal – in assay [2] was 50 nM; in assay [4], 10 nM.

On to `COc1ncc(C)c(NCc2cc(O)c(N3CC(=O)NS3(=O)=O)c(F)c2)n1` [EXAMPLE 22, 5-[2-fluoro-6-hydroxy-4-[[(2-methoxy-5-methyl-pyrimidin-4-yl)amino]methyl]phenyl]-1,1-dioxo-1,2,5-thiadiazolidin-3-one], for which the EC50 (commonly the concentration giving half of the maximal effect) in assay [1] is 6800 nM; in assay [3] (120 h), 10900 nM. Besides, the IC50 was determined as 50 nM in assay [2] and 20 nM in assay [4].

With `Cc1cc(NCc2cc(O)c(N3CC(=O)NS3(=O)=O)c(F)c2)ncn1` [EXAMPLE 26, 5-[2-fluoro-6-hydroxy-4-[[(6-methylpyrimidin-4-yl)amino]methyl]phenyl]-1,1-dioxo-1,2,5-thiadiazolidin-3-one], the EC50 amounted to 1200 nM in assay [1] and 470 nM in assay [3] (120 h). Also, the IC50 in assay [2] came out at 20 nM; in assay [4], 4 nM.

For the compound `Cc1cnc(C)c(NCc2cc(O)c(N3CC(=O)NS3(=O)=O)c(F)c2)n1` [EXAMPLE 18, 5-[4-[[(3,6-dimethylpyrazin-2-yl)amino]methyl]-2-fluoro-6-hydroxy-phenyl]-1,1-dioxo-1,2,5-thiadiazolidin-3-one], the EC50 in assay [1] and in assay [3] (120 h) was over 15000 nM each time. The values for the IC50 in assay [2] and in assay [4] were 110 nM and 50 nM, respectively.

Consider `O=C1CN(c2c(O)cc(CNc3cncc(-c4ccccc4)c3)cc2F)S(=O)(=O)N1` [EXAMPLE 12, 5-[2-fluoro-6-hydroxy-4-[[(5-phenyl-3-pyridyl)amino]methyl]phenyl]-1,1-dioxo-1,2,5-thiadiazolidin-3-one], for which the EC50 in assay [1] and in assay [3] (120 h) was over 15000 nM in each case. Besides, the IC50 was 100 nM in assay [2] and 20 nM in assay [4].

`Cc1nccc(NCc2cc(O)c(N3CC(=O)NS3(=O)=O)c(F)c2)n1` [EXAMPLE 24, 5-[2-fluoro-6-hydroxy-4-[[(2-methylpyrimidin-4-yl)amino]methyl]phenyl]-1,1-dioxo-1,2,5-thiadiazolidin-3-one]: the EC50 in assay [1] came to 790 nM; in assay [3] (120 h), 4280 nM. Besides, the IC50 in assay [2] and in assay [4] was 30 nM in each case.

`Cc1c(NCc2cc(O)c(N3CC(=O)NS3(=O)=O)c(F)c2)ccnc1-c1ccc(C(C)(C)C)cc1` [EXAMPLE 15, 5-[4-[[[2-(4-tert-butylphenyl)-3-methyl-4-pyridyl]amino]methyl]-2-fluoro-6-hydroxy-phenyl]-1,1-dioxo-1,2,5-thiadiazolidin-3-one]: the concentration giving a half-maximal response (EC50) in assay [1] and in assay [3] (120 h) was over 15000 nM in each case. In addition, the IC50 in assay [2] and in assay [4] was 30 nM in each case.

As for `CC(C)(C)c1ccc(Oc2ccc(NCc3cc(O)c(N4CC(=O)NS4(=O)=O)c(F)c3)cn2)cc1` [EXAMPLE 31, 5-[4-[[[6-(4-tert-butylphenoxy)-3-pyridyl]amino]methyl]-2-fluoro-6-hydroxy-phenyl]-1,1-dioxo-1,2,5-thiadiazolidin-3-one], the EC50 in assay [1] and in assay [3] (120 h) was over 15000 nM throughout. The half-inhibitory concentration (IC50) in assay [2] amounted to 60 nM; in assay [4], 20 nM.

“6-[[3-fluoro-5-hydroxy-4-(1,1,4-trioxo-1,2,5-thiadiazolidin-2-yl)phenyl]methylamino]-4-methyl-pyridine-3-carbonitrile [EXAMPLE 5]”: the EC50 in assay [1] came out at 4470 nM; in assay [3] it was 4760 nM. Further, the IC50 in assay [2] and in assay [4] was 20 nM each time.

With `O=C1CN(c2c(O)cc(CNc3cncc(Cl)c3)cc2F)S(=O)(=O)N1` [EXAMPLE 8, 5-[4-[[(5-chloro-3-pyridyl)amino]methyl]-2-fluoro-6-hydroxy-phenyl]-1,1-dioxo-1,2,5-thiadiazolidin-3-one], the EC50 came to 2670 nM in assay [1] and 3900 nM in assay [3] (120 h). Further, the IC50 in assay [2] worked out at 220 nM; in assay [4], 20 nM.
